Results published in PubChem BioAssay AID1963971 (Molecular Pharmacology Branch, DTP, NCI, 2024).
pIC50: −log10 of the molar value.

Tested on: 953936-095-R-J2-PDC spheroids with HUVEC/MSC, viability
Assay: Anticancer human tumor 953936-095-R-J2-PDC patient-derived cervical squamous cell carcinoma cell line growth inhibition [PI3K]
Conditions: for pIC50: curve of first compound; for viability, T/C: stronger effect = lower value
How it was run: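 Multi-cell spheroids combine tumor cells with HUVEC and human MSCs, treated with targeted agents alone or with inavolisib, alpelisib, duvelisib or copanlisib. Concentrations fall in half-log steps from at or near clinical Cmax, or from 10 microM where Cmax is unknown; viability read-out.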
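Also: spheroids exposed to compounds for seven days before read-out.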

CC(C)n1nc(-c2ccc3oc(N)nc3c2)c2c(N)ncnc21 + CC(Nc1ncnc2nc[nH]c12)c1cc2cccc(Cl)c2c(=O)n1-c1ccccc1
pIC50 (second compound 0.0316 µM): 7.47
pIC50 (second compound 0.1 µM): 7.54
pIC50 (second compound 0.316 µM): 7.71
pIC50 (second compound 1 µM): 7.51
pIC50 (second compound 3.16 µM): 7.66
pIC50 (second compound 10 µM): 7.95
viability, T/C (second compound 0.0316 µM, first compound 0.000316 µM): 88.3%
viability, T/C (second compound 0.0316 µM, first compound 0.001 µM): 98.9%
viability, T/C (second compound 0.0316 µM, first compound 0.00316 µM): 93.9%
viability, T/C (second compound 0.0316 µM, first compound 0.01 µM): 73.9%
viability, T/C (second compound 0.0316 µM, first compound 0.0316 µM): 53.7%
viability, T/C (second compound 0.0316 µM, first compound 0.1 µM): 18.2%
viability, T/C (second compound 0.1 µM, first compound 0.000316 µM): 101%
viability, T/C (second compound 0.1 µM, first compound 0.001 µM): 95%
viability, T/C (second compound 0.1 µM, first compound 0.00316 µM): 85.1%
viability, T/C (second compound 0.1 µM, first compound 0.01 µM): 77.1%
viability, T/C (second compound 0.1 µM, first compound 0.0316 µM): 46.3%
viability, T/C (second compound 0.1 µM, first compound 0.1 µM): 16.5%
viability, T/C (second compound 0.316 µM, first compound 0.000316 µM): 112%
viability, T/C (second compound 0.316 µM, first compound 0.001 µM): 87.6%
viability, T/C (second compound 0.316 µM, first compound 0.00316 µM): 77.9%
viability, T/C (second compound 0.316 µM, first compound 0.01 µM): 66.9%
viability, T/C (second compound 0.316 µM, first compound 0.0316 µM): 46.8%
viability, T/C (second compound 0.316 µM, first compound 0.1 µM): 17.2%
viability, T/C (second compound 1 µM, first compound 0.000316 µM): 95.1%
viability, T/C (second compound 1 µM, first compound 0.001 µM): 84.2%
viability, T/C (second compound 1 µM, first compound 0.00316 µM): 77.7%
viability, T/C (second compound 1 µM, first compound 0.01 µM): 65%
viability, T/C (second compound 1 µM, first compound 0.0316 µM): 56%
viability, T/C (second compound 1 µM, first compound 0.1 µM): 15.9%
viability, T/C (second compound 3.16 µM, first compound 0.000316 µM): 73.3%
viability, T/C (second compound 3.16 µM, first compound 0.001 µM): 70.5%
viability, T/C (second compound 3.16 µM, first compound 0.00316 µM): 68.8%
viability, T/C (second compound 3.16 µM, first compound 0.01 µM): 68.8%
viability, T/C (second compound 3.16 µM, first compound 0.0316 µM): 41.1%
viability, T/C (second compound 3.16 µM, first compound 0.1 µM): 14.6%
viability, T/C (second compound 10 µM, first compound 0.000316 µM): 57.7%
viability, T/C (second compound 10 µM, first compound 0.001 µM): 57.3%
viability, T/C (second compound 10 µM, first compound 0.00316 µM): 53.3%
viability, T/C (second compound 10 µM, first compound 0.01 µM): 52.8%
viability, T/C (second compound 10 µM, first compound 0.0316 µM): 29.9%
viability, T/C (second compound 10 µM, first compound 0.1 µM): 12.8%
